Data taken from ChEMBL document CHEMBL3860022, “Do cinnamylideneacetophenones have antioxidant properties and a protective effect toward the oxidation of phosphatidylcholines?” (Eur J Med Chem, 2016).
Values belong to the molecule of their own block, whether it stands above or below them. Calls of active or inactive are those of the source. No cut-off for these calls is given here.

How the values were obtained:
Assay type in all cases: functional
[1] = Antioxidant activity assessed as AAPH free radical scavenging activity by measuring trolox equivalent at 12.5 to 100 umol/L measured every min during 240 mins by fluorescein-based oxygen radical absorption capacity assay
[2] = Antioxidant activity assessed as AAPH free radical scavenging activity by measuring trolox equivalent at 1.5 to 35 umol/L measured every min during 240 mins by fluorescein-based oxygen radical absorption capacity assay
[3] = Antioxidant activity assessed as inhibition of fenton reaction-mediated PLPC peroxidation by measuring ratio of dMPC/unmodified PLPC at 1 mg/ml incubated in dark for 1 hr to 7 days by mass spectroscopic analysis
[4] = Antioxidant activity assessed as DPPH free radical scavenging activity by measuring trolox equivalent at 10 to 100 umol/L after 60 mins
[5] = Antioxidant activity assessed as DPPH free radical scavenging activity after 60 mins
[6] = Antioxidant activity assessed as inhibition of fenton reaction-mediated PLPC peroxidation by measuring ratio of oxidized PLPC/unmodified PLPC at 1 mg/ml incubated in dark for 1 hr to 7 days by mass spectroscopic analysis
[7] = Antioxidant activity assessed as AAPH free radical scavenging activity measured every min during 240 mins by fluorescein-based oxygen radical absorption capacity assay
[8] = Antioxidant activity assessed as DPPH free radical scavenging activity by measuring trolox equivalent at 5 to 35 umol/L after 60 mins
[9] = Antioxidant activity assessed as inhibition of fenton reaction-mediated PLPC peroxidation at 1 mg/ml incubated in dark for 3 days by mass spectroscopic analysis
[10] = Antioxidant activity assessed as inhibition of fenton reaction-mediated PLPC peroxidation by measuring ratio of [dMPC + H]+/[PLPC + H]+ at 1 mg/ml incubated in dark for 1 hr to 7 days by mass spectroscopic analysis
[11] = Antioxidant activity assessed as DPPH free radical scavenging activity by measuring trolox equivalent at 1.5 to 35 umol/L after 60 mins
[12] = Antioxidant activity assessed as AAPH free radical scavenging activity by measuring trolox equivalent at 0.5 to 10 umol/L measured every min during 240 mins by fluorescein-based oxygen radical absorption capacity assay
[13] = Antioxidant activity assessed as inhibition of fenton reaction-mediated PLPC peroxidation by measuring ratio of [dMPC + H]+/[PLPC + H]+ at 2 mg/ml incubated in dark for 1 hr to 7 days by mass spectroscopic analysis
[14] = Antioxidant activity assessed as inhibition of fenton reaction-mediated PLPC peroxidation at 2 mg/ml incubated in dark for 3 days by mass spectroscopic analysis
[15] = Antioxidant activity assessed as inhibition of fenton reaction-mediated PLPC peroxidation by measuring ratio of oxidized PLPC/unmodified PLPC at 2 mg/ml incubated in dark for 1 hr to 7 days by mass spectroscopic analysis
[16] = Antioxidant activity assessed as inhibition of fenton reaction-mediated PLPC peroxidation at 2 mg/ml incubated in dark for 1 hr by mass spectroscopic analysis
[17] = Antioxidant activity assessed as AAPH free radical scavenging activity by measuring trolox equivalent at 75 to 350 umol/L measured every min during 240 mins by fluorescein-based oxygen radical absorption capacity assay

SMILES: COc1ccc(C(=O)/C=C/C=C/c2ccccc2)cc1
Activity [1]: 0.12 equiv

IC50 [5]: 32.5 µM
IC50 [7]: 1.2 µM
SMILES: O=C(/C=C/C=C/c1ccc(O)cc1)c1ccccc1
Activity [2]: 4.8 equiv
inhibition [3]: Active
Activity [4]: 0.29 equiv
inhibition [6]: Active

SMILES: O=C(/C=C/C=C/c1ccccc1)c1ccc(O)cc1
Activity [2]: 4.1 equiv

IC50 [5]: 74 µM
IC50 [7]: 3.3 µM
SMILES: N#CC(C#N)C(/C=C/c1ccccc1)CC(=O)c1ccccc1 (stereo not given)
Activity [2]: 2.7 equiv
Activity [8]: 0.9 equiv

SMILES: COc1ccc(/C=C/C=C/C(=O)c2ccccc2)cc1
inhibition [9]: Active
Activity [1]: 0.17 equiv
inhibition [6]: Active
inhibition [10]: Active

IC50 [5]: 32.5 µM
IC50 [7]: 1.8 µM
SMILES: COc1cc(/C=C/C(=O)CC(=O)/C=C/c2ccc(O)c(OC)c2)ccc1O [CURCUMIN]
Activity [11]: 1.42 equiv
Activity [12]: 3.9 equiv
inhibition [13]: Active
inhibition [14]: Active
inhibition [15]: Active
inhibition [16]: Active

SMILES: O=C(/C=C/c1ccccc1)c1ccccc1
Activity [17]: 0.049 equiv

IC50 [5]: 52.2 µM
IC50 [7]: 4.2 µM
SMILES: Cc1c(C)c2c(c(C)c1O)CCC(C)(C(=O)O)O2 (stereo not given) [TROLOX]

SMILES: O=C(/C=C/C=C/c1ccccc1)c1ccccc1
inhibition [3]: Active
Activity [17]: 0.06 equiv
inhibition [6]: Active
